Experimental data published in ChEMBL document CHEMBL1201862, “PubChem BioAssay data set” (2004).
Active and inactive are the calls of the source.

Legend:
[1] = cytotoxicity in HMLE control line with eGFP shRNA, dose response, counter-screen for HMLE_sh_ECad selective toxicity project, cell-based, HMLE_sh_eGFP, luminescence (AID 463074); format: functional, Homo sapiens;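 further: HMLE human mammary epithelial cells expressing control shRNA against eGFP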
[2] = Luminescence Cell-Based Dose Retest to Confirm Inhibitors of Cancer Stem Cells. [Related pubchem assays (depositor defined):AID2717, AID2721]; format: functional; conditions: Homo sapiens
Streptokinase A = biological target: T1, Streptokinase A (Streptococcus pyogenes serotype M1, UniProt P10520); assay: S. pyogenes streptokinase expression inhibitors, potency, dose response, plasminogen activation absorbance, OD405 (AID 1914); format: functional, Streptococcus pyogenes M1 GAS;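 further: secreted streptokinase activity via plasminogen activation per viability signal from cell pellet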
T1 sequence (P10520 whole entry): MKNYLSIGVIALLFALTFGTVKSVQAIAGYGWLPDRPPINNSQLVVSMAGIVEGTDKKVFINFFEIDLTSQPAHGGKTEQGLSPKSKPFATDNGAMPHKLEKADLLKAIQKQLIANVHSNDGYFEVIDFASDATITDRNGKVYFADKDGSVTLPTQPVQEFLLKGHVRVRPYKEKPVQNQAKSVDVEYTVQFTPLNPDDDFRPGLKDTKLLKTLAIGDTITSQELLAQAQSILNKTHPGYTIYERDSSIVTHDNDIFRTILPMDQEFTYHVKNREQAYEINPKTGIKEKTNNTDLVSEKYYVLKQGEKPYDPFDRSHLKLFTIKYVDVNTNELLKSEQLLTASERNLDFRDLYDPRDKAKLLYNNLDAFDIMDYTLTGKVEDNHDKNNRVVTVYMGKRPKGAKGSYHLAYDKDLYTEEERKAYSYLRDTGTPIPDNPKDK

[3] = cytotoxicity toward NIH3T3 fibroblasts, dose response, counter-screen, cell-based, ATP luminescence, mouse fibroblasts (AID 2010); format: functional;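 further: cells exposed to compound for about 90 hours before reading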
cells [4] = format: functional, cell-based
[5] = insulin promoter down-regulators in MIN6 cells, imaging, high-content screening, mouse beta cells (AID 1628); format: functional
INS1 = assay: beta cell apoptosis inhibitors, cytokine rescue, dose response, luminescence, retest (AID 449756); format: functional, cell-based; conditions: Rattus norvegicus;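 further: cell death triggered by IL-1 beta plus TNF-alpha plus IFN-gamma mixture; protective hits raise ATP signal compared with cytokine alone wells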
[6] = PAX2 cell-based inhibition, dose response, selectivity assay for PAX8 inhibitor project, plate reader, dry powder samples (AID 743048); format: functional;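 further: HEK293 cells carrying a WT1 promoter luciferase reporter driven by expressed Pax2; potency is for inhibition of Pax2 driven reporter signal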
[7] = biological target: T2, Type-1 angiotensin II receptor (Homo sapiens, UniProt P30556); assay: AT1 receptor agonists, dose response, selectivity assay for APJ receptor agonist project, cell-based, uHTS hits (AID 488865); format: functional;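 further: beta-arrestin recruitment to AT1 measured by enzyme fragment complementation luminescence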
T2 sequence (P30556 whole entry): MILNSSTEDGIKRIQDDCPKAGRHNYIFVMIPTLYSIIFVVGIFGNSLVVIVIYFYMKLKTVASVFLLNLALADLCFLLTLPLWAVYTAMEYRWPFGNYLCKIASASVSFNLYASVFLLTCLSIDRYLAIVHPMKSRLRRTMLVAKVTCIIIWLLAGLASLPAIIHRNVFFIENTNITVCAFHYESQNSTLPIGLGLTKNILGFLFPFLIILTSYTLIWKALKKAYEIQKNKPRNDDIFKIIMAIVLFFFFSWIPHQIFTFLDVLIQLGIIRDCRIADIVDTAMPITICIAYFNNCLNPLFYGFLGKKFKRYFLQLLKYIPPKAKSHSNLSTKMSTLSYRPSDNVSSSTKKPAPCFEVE

[8] = cytotoxicity dependent on PAX8, dose response, cell-based, plate reader, dry powder (AID 743049); format: functional
[9] = control 3'UTR Renilla luciferase suppression, dose response, counter-screen for Shn3 inhibitor project, cell-based, Clone20-Shn3RL, cherry-picked (AID 624133); format: functional
[10] = HepG2 cell cytotoxicity, dose response, cytotoxicity control for Shn3 inhibitor project, CellTiter-Glo, cherry-picked (AID 624134); format: functional, cell-based
[11] = PAX5 activity inhibitors, dose response, selectivity assay for PAX8 inhibitor project, cell-based, plate reader, dry powder samples (AID 743047); format: functional;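 further: HEK293 cells carrying a Pax5 driven CD19 promoter luciferase reporter; potency of inhibitors that lower reporter luminescence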
cells [12] = format: functional, cell-based; remark: listed apart in the source
[13] = biological target: T3, Probable nicotinate-nucleotide adenylyltransferase (Staphylococcus aureus (strain N315), UniProt P65502); format: functional, Staphylococcus aureus subsp. aureus N315; conditions: read-out: IC50_Mean;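 on IC50 Mean: confirmatory dose-response retesting of NadD inhibitor hits first found in an ultra-high-throughput screen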
[14] = tested on: Streptococcus sp. 'group A'; assay: growth inhibition of control SK(-) GAS strain, dose response, counter-screen for streptokinase expression inhibitor project, luminescence, kanamycin, BacTiterGlo, confirmation (AID 1900); format: functional, organism-based
[15] = cytotoxicity in COV362 ovarian cancer cells, dose response, cytotoxicity control for PAX8 inhibitor project, cell-based, plate reader, dry powder, SA12 (AID 743144); format: functional
[16] = inhibitors of intracellular T. cruzi replication, confirmation, NIH3T3 host cells, beta-gal luminescence (AID 2044); format: functional, cell-based;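 further: intracellular parasites grown in NIH/3T3 mouse fibroblasts as host cells; luminescent beta-galactosidase reporter signal from transgenic T. cruzi replicating inside host cells; inhibitors lower the luminescence signal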
Escherichia coli = assay: microbe, parasite or virus in culture
[17] = biological target: T3, Probable nicotinate-nucleotide adenylyltransferase; format: functional, Staphylococcus aureus subsp. aureus N315
[18] = A2780 ovarian cancer cell cytotoxicity, dose response, cytotoxicity control, plate reader, dry powder samples (AID 743046); format: functional, cell-based
Paired box protein Pax-8 = Paired box protein Pax-8 (Homo sapiens, UniProt Q06710); assay: inhibitors of PAX8-driven TPO luciferase reporter, dose response, RMG-I cells, cherry-pick (AID 687027); format: functional, cell-based;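 further: luciferase reporter driven by Pax8 target thyroperoxidase promoter measured by SteadyGlo luminescence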
[19] = cytotoxicity in MIN6 insulinoma cells, dose response, cytotoxicity control, cell-based, mouse insulinoma (AID 2122); format: functional;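 further: confirmatory high-throughput counterscreen run to flag cytotoxic compounds; mouse MIN-6 beta cells carrying an insulin promoter eGFP reporter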
[20] = Shn3 3'UTR reporter inhibitors, dose response, cell-based, Clone20 osteoblasts, firefly luciferase, cherry-picked (AID 624132); format: functional;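 further: firefly luciferase luminescence from reporter carrying the Shn3 3'UTR in osteoblasts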
[21] = NIH:OVCAR-3 ovarian cancer cell cytotoxicity, dose response, PAX8 inhibitor project, plate reader, dry powder samples (AID 743044); format: functional, cell-based
[22] = cytotoxicity in OVCAR4 cells, dose response, cytotoxicity control for PAX8 inhibitor project, cell-based, plate reader, dry powder, SA11 (AID 743150); format: functional; conditions: OVCAR-4
[23] = IOSE-T80 ovarian epithelial cell cytotoxicity, dose response, cytotoxicity control for PAX8 inhibitor project, plate reader, dry powder samples (AID 743045); format: functional, cell-based
[24] = cytotoxicity in OV-90 ovarian cancer cells, dose response, PAX8 inhibitor project, cell-based, plate reader, dry powder, SA8 (AID 743149); format: functional
Streptococcus = assay: Group A Streptococcus viability loss, dose response, counter-screen for streptokinase expression inhibitor project, luminescence, BacTiterGlo (AID 1915); format: functional, organism-based;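 further: potency for reduction of bacterial viability or growth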
[25] = cytotoxicity in COV434 cells, dose response, cytotoxicity control for PAX8 inhibitor project, cell-based, plate reader, dry powder, SA7 (AID 743145); format: functional
[26] = IGROV1 ovarian cancer cell cytotoxicity, dose response, PAX8 inhibitor project, plate reader, dry powder samples (AID 743043); format: functional, cell-based; conditions: IGROV-1
Keap1/Nrf2 = Keap1/Nrf2 (Homo sapiens, UniProt Q14145); assay: Keap1-Nrf2 protein-protein interaction inhibitors, dose response, biochemical, fluorescence polarization, cherry-picked samples (AID 588683)
[27] = biological target: T4, Heat shock factor protein 1 (Mus musculus, UniProt P38532); assay: HSF1 potentiators in luciferase reporter cells, confirmation, cell-based, NIH3T3, luminescence, dose retest (AID 435004); format: functional;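 further: stress induced by proteasome inhibitor MG132 added 30 min after compound; luciferase reporter driven by HSF1 response element in NIH3T3 cells; actives raise luminescence as potentiators of the MG132 stress response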
T4 sequence (P38532 whole entry): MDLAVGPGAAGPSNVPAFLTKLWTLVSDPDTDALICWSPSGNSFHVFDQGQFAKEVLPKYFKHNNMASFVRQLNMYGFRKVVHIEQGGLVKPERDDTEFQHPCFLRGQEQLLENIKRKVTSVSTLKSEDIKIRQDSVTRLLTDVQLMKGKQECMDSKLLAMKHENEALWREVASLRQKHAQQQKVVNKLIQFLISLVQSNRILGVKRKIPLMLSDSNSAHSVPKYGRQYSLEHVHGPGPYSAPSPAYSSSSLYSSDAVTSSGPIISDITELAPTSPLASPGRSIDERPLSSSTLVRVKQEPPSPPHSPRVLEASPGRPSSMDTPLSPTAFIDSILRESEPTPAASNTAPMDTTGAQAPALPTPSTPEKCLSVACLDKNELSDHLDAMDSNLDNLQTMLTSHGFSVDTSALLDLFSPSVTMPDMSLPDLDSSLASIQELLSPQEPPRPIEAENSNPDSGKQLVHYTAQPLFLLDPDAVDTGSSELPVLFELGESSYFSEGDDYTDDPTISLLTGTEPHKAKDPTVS

[28] = biological target: Peroxisome proliferator-activated receptor gamma/Nuclear receptor corepressor 2 (Homo sapiens, UniProt P37231+Q9Y618); assay: Counterscreen for NR2E3 inverse agonists: TR-FRET-based biochemical high throughput dose response assay to identify inverse agonists of the interaction between peroxisome proliferator-activated receptor gamma (PPARg) and nuclear receptor co-repressor 2 (NCOR2).; format: functional
[29] = biological target: T5, RNA-binding protein pos-1 (Caenorhabditis elegans, UniProt G5EF15); assay: inhibitors of POS-1/mex-3 RNA binding, dose response, biochemical, fluorescence polarization (AID 1964);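 further: purified POS-1 fused to maltose binding protein made in E. coli; potency of compounds blocking POS-1 binding to fluorescent RNA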
T5 sequence (G5EF15 whole entry): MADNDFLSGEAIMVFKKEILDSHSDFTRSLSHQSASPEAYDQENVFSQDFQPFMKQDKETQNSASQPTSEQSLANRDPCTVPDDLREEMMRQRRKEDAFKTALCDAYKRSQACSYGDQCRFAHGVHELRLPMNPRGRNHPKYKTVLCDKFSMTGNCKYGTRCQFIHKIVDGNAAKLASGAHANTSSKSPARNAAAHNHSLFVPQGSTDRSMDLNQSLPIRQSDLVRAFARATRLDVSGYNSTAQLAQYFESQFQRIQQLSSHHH

[30] = biological target: T6, Zinc finger protein mex-5 (Caenorhabditis elegans, UniProt Q9XUB2); assay: MEX-5/TCR-2 RNA interaction inhibitors, dose response, biochemical, C. elegans, fluorescence polarization (AID 1960)
T6 sequence (Q9XUB2 whole entry): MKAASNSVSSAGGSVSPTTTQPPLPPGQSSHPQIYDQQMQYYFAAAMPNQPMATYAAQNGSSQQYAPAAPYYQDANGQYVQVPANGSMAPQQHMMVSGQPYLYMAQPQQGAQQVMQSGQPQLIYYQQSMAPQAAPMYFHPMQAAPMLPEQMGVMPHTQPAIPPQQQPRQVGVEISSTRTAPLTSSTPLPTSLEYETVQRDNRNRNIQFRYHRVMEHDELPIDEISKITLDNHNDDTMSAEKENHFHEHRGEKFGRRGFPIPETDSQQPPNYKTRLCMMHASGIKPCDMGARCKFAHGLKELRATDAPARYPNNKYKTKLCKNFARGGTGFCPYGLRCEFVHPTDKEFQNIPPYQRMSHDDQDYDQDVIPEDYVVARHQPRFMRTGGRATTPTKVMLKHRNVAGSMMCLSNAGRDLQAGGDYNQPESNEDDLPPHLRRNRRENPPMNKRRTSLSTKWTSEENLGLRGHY

ORF 73 = ORF 73 (Human herpesvirus 8, UniProt O40947); assay: inhibitors of C-LANA binding to LBS DNA, dose response, biochemical, fluorescence polarization, cherry-picked samples (AID 504725); design: species or system Human gammaherpesvirus 8;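 further: fluorescence polarization of a labeled DNA duplex reporting LANA DNA binding; potency is for inhibitors that block LANA binding to the DNA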
[31] = biological target: Luciferin 4-monooxygenase (Photinus pyralis, UniProt P08659); assay: firefly luciferase enzyme inhibitors, dose response, biochemical, luminescence (AID 1891)
[32] = biological target: Photoreceptor-specific nuclear receptor (Homo sapiens, UniProt Q9Y5X4); assay: NR2E3 inverse agonists, dose response, biochemical, TR-FRET (AID 463256); format: functional
Cytochrome P450 3A4 = Cytochrome P450 3A4 (Homo sapiens, UniProt P08684);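 further: CYP3A4 tested as one member of a cytochrome P450 panel screen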
[33] = growth induction of Burl-1 ts yeast mutant, dose response, counter-screen for SUMOylation pathway inhibitor project, whole organism, S. cerevisiae, luminescence (AID 463199); format: functional
[34] = biological target: Dual specificity protein phosphatase 3 (Homo sapiens, UniProt P51452); assay: SAR VHR1 Fluorescent Assay for In Vitro dose response studies Set 2. [Related pubchem assays (depositor defined):AID1654, AID1661, AID1878]; format: functional
[35] = biological target: Dual specificity protein phosphatase 6 (Rattus norvegicus, UniProt Q64346); format: functional;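 further: confirmatory in vitro dose-response testing of MKP-3 inhibition; recombinant His-tagged MKP-3 made in E. coli BL21 with OMFP substrate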
[36] = biological target: UDP-galactopyranose mutase (Mycobacterium tuberculosis, UniProt P9WIQ1); assay: Inhibitors of Mycobacterium tuberculosis UDP-galactopyranose mutase (UGM) enzyme Measured in Biochemical System Using Plate Reader - 2105-02_Inhibitor_Dose_CherryPick_Activity. [Related pubchem assays (depositor defined):AID504439]
Chain of UDP-galactopyranose mutase (P9WIQ1 whole entry): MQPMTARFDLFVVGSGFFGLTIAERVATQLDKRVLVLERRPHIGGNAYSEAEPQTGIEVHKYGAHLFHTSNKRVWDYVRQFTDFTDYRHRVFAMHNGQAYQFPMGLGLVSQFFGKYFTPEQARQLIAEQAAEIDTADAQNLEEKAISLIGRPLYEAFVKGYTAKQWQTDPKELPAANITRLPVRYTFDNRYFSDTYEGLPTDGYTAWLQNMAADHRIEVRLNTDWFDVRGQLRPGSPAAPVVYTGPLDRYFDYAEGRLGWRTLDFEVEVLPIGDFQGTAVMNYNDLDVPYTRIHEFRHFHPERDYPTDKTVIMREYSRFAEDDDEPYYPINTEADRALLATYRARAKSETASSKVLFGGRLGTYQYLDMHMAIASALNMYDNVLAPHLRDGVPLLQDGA

T3 sequence (P65502 whole entry): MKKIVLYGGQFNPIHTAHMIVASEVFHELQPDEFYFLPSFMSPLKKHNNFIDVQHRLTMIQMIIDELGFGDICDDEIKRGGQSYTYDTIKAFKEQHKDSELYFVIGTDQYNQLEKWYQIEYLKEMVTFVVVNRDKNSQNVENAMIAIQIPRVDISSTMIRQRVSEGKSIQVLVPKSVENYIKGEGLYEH
Chain of Paired box protein Pax-8 (Q06710 whole entry): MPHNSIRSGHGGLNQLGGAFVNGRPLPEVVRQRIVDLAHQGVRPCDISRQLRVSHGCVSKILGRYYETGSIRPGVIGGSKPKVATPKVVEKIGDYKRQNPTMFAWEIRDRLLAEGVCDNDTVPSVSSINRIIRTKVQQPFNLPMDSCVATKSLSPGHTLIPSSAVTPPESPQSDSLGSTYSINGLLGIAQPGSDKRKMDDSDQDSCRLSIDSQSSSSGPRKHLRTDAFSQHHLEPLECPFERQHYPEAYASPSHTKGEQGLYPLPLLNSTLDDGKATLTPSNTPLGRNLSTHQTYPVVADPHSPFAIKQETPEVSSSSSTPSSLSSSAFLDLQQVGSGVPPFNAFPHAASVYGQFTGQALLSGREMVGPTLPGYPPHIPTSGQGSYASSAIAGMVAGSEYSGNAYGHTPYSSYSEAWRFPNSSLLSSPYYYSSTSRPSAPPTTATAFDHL
Chain of Dual specificity protein phosphatase 6 (Q64346 whole entry): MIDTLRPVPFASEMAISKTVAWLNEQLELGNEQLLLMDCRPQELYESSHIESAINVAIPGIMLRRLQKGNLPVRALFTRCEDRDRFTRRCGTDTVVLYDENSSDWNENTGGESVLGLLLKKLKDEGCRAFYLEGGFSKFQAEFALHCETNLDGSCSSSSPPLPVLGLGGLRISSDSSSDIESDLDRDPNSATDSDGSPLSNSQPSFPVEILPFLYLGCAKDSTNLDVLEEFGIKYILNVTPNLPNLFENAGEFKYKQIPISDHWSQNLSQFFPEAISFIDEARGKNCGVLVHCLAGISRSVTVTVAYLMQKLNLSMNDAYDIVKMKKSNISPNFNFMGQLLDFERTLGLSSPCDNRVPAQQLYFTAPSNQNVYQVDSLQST
Chain of Cytochrome P450 3A4 (P08684 whole entry): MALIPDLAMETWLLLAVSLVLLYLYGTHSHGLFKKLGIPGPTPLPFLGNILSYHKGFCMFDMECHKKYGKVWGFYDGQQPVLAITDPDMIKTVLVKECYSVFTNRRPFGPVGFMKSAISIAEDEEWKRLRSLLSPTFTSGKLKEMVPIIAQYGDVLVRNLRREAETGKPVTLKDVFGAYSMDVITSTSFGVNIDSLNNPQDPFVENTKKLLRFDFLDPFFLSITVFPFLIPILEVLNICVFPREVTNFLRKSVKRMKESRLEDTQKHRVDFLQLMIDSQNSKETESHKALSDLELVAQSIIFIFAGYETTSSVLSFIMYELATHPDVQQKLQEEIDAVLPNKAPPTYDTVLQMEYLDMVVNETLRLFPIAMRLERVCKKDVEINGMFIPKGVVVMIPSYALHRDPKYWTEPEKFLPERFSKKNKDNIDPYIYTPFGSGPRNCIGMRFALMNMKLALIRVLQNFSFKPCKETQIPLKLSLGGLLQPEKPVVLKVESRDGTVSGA
Chain of Dual specificity protein phosphatase 3 (P51452 whole entry): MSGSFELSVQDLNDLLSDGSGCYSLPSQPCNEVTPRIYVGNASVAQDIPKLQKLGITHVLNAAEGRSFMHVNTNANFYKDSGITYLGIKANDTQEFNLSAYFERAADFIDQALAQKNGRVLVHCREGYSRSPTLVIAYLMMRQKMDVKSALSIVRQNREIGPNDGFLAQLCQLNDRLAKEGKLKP
Chain of ORF 73 (O40947 whole entry): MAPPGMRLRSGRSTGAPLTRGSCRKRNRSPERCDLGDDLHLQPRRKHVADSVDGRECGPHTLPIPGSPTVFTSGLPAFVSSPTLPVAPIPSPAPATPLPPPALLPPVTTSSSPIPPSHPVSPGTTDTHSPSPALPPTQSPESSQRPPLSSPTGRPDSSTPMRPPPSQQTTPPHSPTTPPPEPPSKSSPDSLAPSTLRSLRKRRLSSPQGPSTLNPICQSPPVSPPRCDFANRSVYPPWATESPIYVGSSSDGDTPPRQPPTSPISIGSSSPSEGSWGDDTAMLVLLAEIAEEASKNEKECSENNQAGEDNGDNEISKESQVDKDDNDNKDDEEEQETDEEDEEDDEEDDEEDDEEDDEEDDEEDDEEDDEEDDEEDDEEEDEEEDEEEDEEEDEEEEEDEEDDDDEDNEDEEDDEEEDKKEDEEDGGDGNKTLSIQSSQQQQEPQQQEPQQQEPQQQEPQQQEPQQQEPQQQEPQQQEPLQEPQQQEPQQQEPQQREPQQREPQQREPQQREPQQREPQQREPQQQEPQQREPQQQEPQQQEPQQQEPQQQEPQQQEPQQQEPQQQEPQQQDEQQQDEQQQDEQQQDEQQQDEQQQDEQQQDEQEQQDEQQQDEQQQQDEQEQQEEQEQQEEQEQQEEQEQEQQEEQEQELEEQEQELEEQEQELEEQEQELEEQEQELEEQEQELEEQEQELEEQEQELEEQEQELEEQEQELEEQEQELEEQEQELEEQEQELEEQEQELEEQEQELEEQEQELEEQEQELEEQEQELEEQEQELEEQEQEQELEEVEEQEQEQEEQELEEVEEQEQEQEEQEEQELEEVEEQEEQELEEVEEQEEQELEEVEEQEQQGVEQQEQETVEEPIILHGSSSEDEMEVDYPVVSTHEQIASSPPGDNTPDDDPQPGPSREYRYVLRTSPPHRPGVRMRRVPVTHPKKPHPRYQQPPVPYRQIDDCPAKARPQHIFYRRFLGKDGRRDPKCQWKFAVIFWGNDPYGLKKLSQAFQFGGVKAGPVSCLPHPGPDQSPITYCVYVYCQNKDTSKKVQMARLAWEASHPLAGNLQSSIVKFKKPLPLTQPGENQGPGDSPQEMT
Chain of Keap1/Nrf2 (Q16236 whole entry): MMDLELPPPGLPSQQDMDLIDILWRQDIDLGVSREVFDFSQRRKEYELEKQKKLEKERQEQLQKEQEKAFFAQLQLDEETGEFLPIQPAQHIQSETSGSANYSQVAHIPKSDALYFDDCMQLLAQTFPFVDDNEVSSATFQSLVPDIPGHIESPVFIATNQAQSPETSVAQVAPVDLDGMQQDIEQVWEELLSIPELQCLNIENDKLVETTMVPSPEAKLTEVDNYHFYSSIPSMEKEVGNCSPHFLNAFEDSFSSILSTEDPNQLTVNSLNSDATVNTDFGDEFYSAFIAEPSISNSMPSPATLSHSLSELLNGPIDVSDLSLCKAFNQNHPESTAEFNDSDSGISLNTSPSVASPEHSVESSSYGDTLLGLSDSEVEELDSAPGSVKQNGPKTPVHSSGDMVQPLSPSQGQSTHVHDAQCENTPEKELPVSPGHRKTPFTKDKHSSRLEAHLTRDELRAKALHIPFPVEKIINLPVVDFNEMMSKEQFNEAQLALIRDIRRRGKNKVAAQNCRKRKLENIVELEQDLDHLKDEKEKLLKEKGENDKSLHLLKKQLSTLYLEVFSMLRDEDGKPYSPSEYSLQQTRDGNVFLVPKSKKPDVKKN
Chain of Keap1/Nrf2 (Q14145 whole entry): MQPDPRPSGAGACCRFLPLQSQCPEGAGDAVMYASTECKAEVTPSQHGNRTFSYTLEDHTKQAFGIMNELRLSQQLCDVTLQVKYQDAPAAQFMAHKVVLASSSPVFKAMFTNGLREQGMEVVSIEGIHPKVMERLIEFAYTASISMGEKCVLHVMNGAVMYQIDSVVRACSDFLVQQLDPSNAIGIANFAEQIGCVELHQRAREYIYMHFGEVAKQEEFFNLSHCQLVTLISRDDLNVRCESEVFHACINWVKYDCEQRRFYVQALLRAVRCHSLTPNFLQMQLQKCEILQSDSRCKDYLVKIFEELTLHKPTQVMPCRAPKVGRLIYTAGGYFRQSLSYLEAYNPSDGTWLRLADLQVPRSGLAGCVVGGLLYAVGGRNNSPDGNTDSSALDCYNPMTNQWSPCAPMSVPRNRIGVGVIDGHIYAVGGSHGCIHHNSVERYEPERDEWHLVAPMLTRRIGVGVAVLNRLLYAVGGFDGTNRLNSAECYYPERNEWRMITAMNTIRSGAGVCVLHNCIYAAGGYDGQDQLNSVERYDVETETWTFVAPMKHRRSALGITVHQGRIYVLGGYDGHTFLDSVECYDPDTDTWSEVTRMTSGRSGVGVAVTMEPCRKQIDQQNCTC
Chain of Luciferin 4-monooxygenase (P08659 whole entry): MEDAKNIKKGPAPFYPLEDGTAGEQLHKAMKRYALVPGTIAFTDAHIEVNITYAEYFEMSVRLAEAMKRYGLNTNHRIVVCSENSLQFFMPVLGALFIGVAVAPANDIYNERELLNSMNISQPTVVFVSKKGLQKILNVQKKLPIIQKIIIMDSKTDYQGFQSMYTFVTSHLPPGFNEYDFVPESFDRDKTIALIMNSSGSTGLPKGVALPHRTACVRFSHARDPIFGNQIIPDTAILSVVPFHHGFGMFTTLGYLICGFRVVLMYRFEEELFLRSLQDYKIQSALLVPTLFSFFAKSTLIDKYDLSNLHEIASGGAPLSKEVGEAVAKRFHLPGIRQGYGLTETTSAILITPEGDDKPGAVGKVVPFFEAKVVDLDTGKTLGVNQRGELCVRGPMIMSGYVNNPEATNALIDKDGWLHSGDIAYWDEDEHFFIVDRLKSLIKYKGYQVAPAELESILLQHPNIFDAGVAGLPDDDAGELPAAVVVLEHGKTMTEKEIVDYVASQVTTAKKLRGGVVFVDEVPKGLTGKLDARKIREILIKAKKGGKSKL

COc1cc2c(cc1NC(=O)c1cccc([N+](=O)[O-])c1C)oc1ccccc12
active: AC50 [1] 41.4 µM | AC50 [2] 2.65 µM

Cc1ccc2nc(NNC(=O)c3ccc(S(=O)(=O)N4CCc5ccccc5C4)cc3)sc2c1
> 350 µM (not active): EC50 (cells [4])
active: EC50 [3] 3.65 µM | IC50 [5] 3.03 µM | AC50 (INS1) 2.17 µM | AC50 [6] 6.18 µM | AC50 [8] 9.32 µM | AC50 [9] 1.78 µM | AC50 [10] 2.88 µM | AC50 [11] 5.81 µM | EC50 (cells [12]) 13.5 µM | IC50 [13] 52.7 µM | EC50 [14] 0.499 µM | AC50 [15] 18.3 µM | EC50 [16] 0.904 µM | AC50 (Escherichia coli) 39 µM | IC50 [17] 9.9 µM | AC50 [18] 14.8 µM | AC50 (Paired box protein Pax-8) 3.01 µM | IC50 [19] 2.7 µM | AC50 [20] 1.62 µM | AC50 [21] 31.1 µM | AC50 [22] 31.1 µM | AC50 [23] 19.5 µM | AC50 [24] 9.99 µM | AC50 [2] 3.74 µM | AC50 [25] 13.7 µM | AC50 [26] 8.28 µM
inactive: EC50 [7] > 100 µM
> 150 µM (not active): EC50 (Streptokinase A) | EC50 (Streptococcus)

O=c1[nH]c2c(s1)C=Nc1ccccc1N2
> 112 µM (not active): EC50 [31]
inconclusive: EC50 [29] 2.6 µM | EC50 [30] 1.23 µM
inactive: EC50 [27] > 260 µM
active: AC50 (Keap1/Nrf2) 9.53 µM | IC50 [28] 2.26 µM | AC50 (ORF 73) 5.1 µM | IC50 [32] 3.14 µM
> 150 µM (not active): EC50 (Streptokinase A)

CC(=O)Nc1ccccc1C(=O)OCc1ccc(C(=O)c2ccccc2)cc1
inconclusive: AC50 (Cytochrome P450 3A4)

Cc1ccc(C2C(C(=O)c3cccs3)=C(O)C(=O)N2c2ccc(S(N)(=O)=O)cc2)cc1 (stereo not drawn)
active: AC50 [33] 48.5 µM

NS(=O)(=O)c1cc(C(=O)NC2CCSc3ccccc32)c(Cl)cc1Cl (stereo not drawn)
inactive: IC50 [34] > 100 µM | IC50 [35] > 100 µM

CCOCCCn1/c(=N/C(=O)c2cccs2)c(C#N)cc2c(=O)n3ccccc3nc21
inconclusive: EC50 [30] 40 µM
active: EC50 [29] 28.9 µM
inactive: AC50 [36] > 500 µM
